Literature values as cited in patent EP1048712A1, “A process of treating fabrics with a laundry detergent additive tablet” (THE PROCTER & GAMBLE COMPANY, priority 1999, dated 2000).

Conditions: 25°C

Compound | base hydrolysis rates (kOH) [M⁻¹ s⁻¹]
CC(=O)O [acetate] | 0.00096
oxalate | 0.00025
N#CS [NCS-] | 0.0005
O=CO [formate] | 0.00058
